ChEMBL document CHEMBL5331108, “Design and Synthesis of 4-Fluorophenyl-5-methylene-2(5H)-furanone Derivatives as Potent Quorum Sensing Inhibitors” (J Med Chem, 2023)
In brackets after ≈: the same amount, converted by molar mass. Activity calls are given as the source filed them. The calls are words filed in the database; no cut-off is given here.

What was measured:
Pseudomonas aeruginosa [1] = assay: Antibacterial activity against penicillin-susceptible Pseudomonas aeruginosa ATCC27853 assessed as inhibition of bacterial growth incubated for 20 hrs by CLSI protocol based microdilution method; assay type: functional
Pseudomonas aeruginosa [2] = assay: Synergistic antibacterial activity against Pseudomonas aeruginosa 27853 assessed as inhibition of bacterial growth at 1 to 256 ug/ml incubated for 24 hrs in the presence of Ciprofloxacin by absorbance based microplate reader analysis; assay type: functional, organism-based; conditions: dose 1-256 µg/ml
Pseudomonas aeruginosa [3] = assay: Synergistic antibacterial activity against Pseudomonas aeruginosa PAO1 assessed as inhibition of bacterial growth at 1 to 256 ug/ml incubated for 24 hrs in the presence of ciprofloxacin by absorbance based microplate reader analysis; assay type: functional, organism-based; conditions: dose 1-256 µg/ml
[4] = Hemolytic activity in mouse red blood cells assessed as hemolysis rate at 512 ug/ml incubated for 1 hrs by microplate reader analysis relative to control; assay type: toxicity, cell-based, Erythrocyte; conditions: red blood cells (erythrocytes), at 512 µg/mL, read-out: Activity
Bacillus subtilis = assay: Antibacterial activity against penicillin-susceptible Bacillus subtilis ATCC9372 assessed as inhibition of bacterial growth incubated for 20 hrs by CLSI protocol based microdilution method; assay type: functional
Pseudomonas aeruginosa [5] = assay: Synergistic antibacterial activity against Pseudomonas aeruginosa 27853 assessed as inhibition of bacterial growth incubated for 24 hrs in the presence of Clarithromycin by absorbance based microplate reader analysis; assay type: functional, organism-based; conditions: dose 1-256 µg/ml
Pseudomonas aeruginosa [6] = assay: Synergistic antibacterial activity against Pseudomonas aeruginosa PAO1 assessed as inhibition of bacterial growth at 1 to 256 ug/ml incubated for 24 hrs in the presence of Clarithromycin by absorbance based microplate reader analysis; assay type: functional, organism-based; conditions: dose 1-256 µg/ml
[7] = Inhibition of quorum sensing system in Pseudomonas aeruginosa PAO1 assessed as inhibition of protease activity at 102.4 ug/ml incubated for 24 hrs by absorbance based assay; conditions: dose 102.4 µg/ml
Pseudomonas aeruginosa [8] = assay: Antibacterial activity against Pseudomonas aeruginosa 27853 assessed as inhibition of bacterial growth at 256 ug/ml measured after 25 hrs by absorbance based assay; assay type: functional, organism-based; conditions: dose 256.0 µg/ml
Pseudomonas aeruginosa [9] = assay: Antibacterial activity against wild type Pseudomonas aeruginosa […] CGMCC1.12483 assessed as inhibition of bacterial growth incubated for 20 hrs by CLSI protocol based microdilution method; assay type: functional
[10] = Inhibition of quorum sensing system in Pseudomonas aeruginosa PAO1 assessed as inhibition of rhamnolipid production at 102.4 ug/ml incubated for 24 hrs by absorbance based assay; conditions: dose 102.4 µg/ml
Pseudomonas aeruginosa [11] = assay: Antibacterial activity against Pseudomonas aeruginosa PAO1 assessed as inhibition of bacterial growth at 256 ug/ml measured after 25 hrs by absorbance based assay; assay type: functional, organism-based; conditions: dose 256.0 µg/ml
[12] = Inhibition of quorum sensing system in Pseudomonas aeruginosa PAO1 assessed as inhibition of pyocyanin production at 102.4 ug/ml incubated for 18 hrs by absorbance based assay; conditions: dose 102.4 µg/ml
Escherichia coli = assay: Antibacterial activity against penicillin-susceptible Escherichia coli ATCC25922 assessed as inhibition of bacterial growth incubated for 20 hrs by CLSI protocol based microdilution method; assay type: functional
Pseudomonas aeruginosa [13] = assay: Inhibition of biofilm formation in Pseudomonas aeruginosa PAO1 at 32 ug/ml incubated for 20 hrs by crystal violet staining based analysis; assay type: functional; conditions: dose 32.0 µg/ml
Staphylococcus aureus [14] = assay: Antibacterial activity against methicillin-resistant Staphylococcus aureus ATCC43300 assessed as inhibition of bacterial growth incubated for 20 hrs by CLSI protocol based microdilution method; assay type: functional
Bacillus pumilus = assay: Antibacterial activity against penicillin-susceptible Bacillus pumilus CMCC63202 assessed as inhibition of bacterial growth incubated for 20 hrs by CLSI protocol based microdilution method; assay type: functional
Staphylococcus aureus [15] = assay: Antibacterial activity against erthromycin-susceptible Staphylococcus aureus ATCC25923 assessed as inhibition of bacterial growth incubated for 20 hrs by CLSI protocol based microdilution method; assay type: functional
Pseudomonas aeruginosa [16] = assay: Synergistic antibacterial activity against Pseudomonas aeruginosa 27853 assessed as inhibition of bacterial growth by measuring fold change in ciprofloxacin at 1 to 256 ug/ml incubated for 24 hrs by absorbance based microplate reader analysis; assay type: functional; conditions: dose 1-256 µg/ml
Pseudomonas aeruginosa [17] = assay: Inhibition of biofilm formation in Pseudomonas aeruginosa PAO1 assessed as effect on biofilm morphology at 102.4 ug/ml incubated for 24 hrs by scanning electron microscopic analysis; assay type: functional, organism-based; conditions: dose 102.4 µg/ml
Pseudomonas aeruginosa [18] = assay: Synergistic antibacterial activity against Pseudomonas aeruginosa PAO1 assessed as inhibition of bacterial growth at highest concentration incubated for 24 hrs in the presence of ciprofloxacin by absorbance based microplate reader analysis relative to control; assay type: functional

Structure (SMILES) | MIC (Pseudomonas aeruginosa [1]) [µg/mL] | Activity (Pseudomonas aeruginosa [2]) | Activity (Pseudomonas aeruginosa [3]) | MIC (Bacillus subtilis) [µg/mL] | Activity (Pseudomonas aeruginosa [5]) | inhibition [7] | Activity (Pseudomonas aeruginosa [8]) | MIC (Pseudomonas aeruginosa [9]) [µg/mL] | inhibition [10] | Activity (Pseudomonas aeruginosa [11]) | inhibition [12] | MIC (Escherichia coli) [µg/mL] | inhibition (Pseudomonas aeruginosa [13]) | MIC (Staphylococcus aureus [14]) [µg/mL] | MIC (Bacillus pumilus) [µg/mL] | MIC (Staphylococcus aureus [15]) [µg/mL] | also measured
C=C1OC(=O)C(CNC(=O)c2ccc(Cl)cc2)=C1c1ccc(F)cc1 | > 512 | Active | Active | > 512 | Dose-Dependent Effect | 8.6% | inactive | > 512 | 47.3% | inactive | Active | > 512 | Active | > 512 | > 512 | > 512 | hemolysis at 1 h, 512 ug/ml [4]: > 2.5%; Activity (Pseudomonas aeruginosa [6]): Active
C=C1C(c2ccc(F)cc2)=C(CNC(=O)c2ccc(C)cc2)C(=O)N1c1cccc(C)c1 | > 512 | Active | Active | > 512 | Dose-Dependent Effect | 8.6% | inactive | 512 (≈ 1200 µM) | 57.1% | inactive | 35.2% | > 512 | Active | > 512 | 512 (≈ 1200 µM) | > 512 | hemolysis at 1 h, 512 ug/ml [4]: > 2.5%; fold change (FC) (Pseudomonas aeruginosa [16]): >=1.5
C=C1OC(=O)C(CNC(=O)Cc2ccccc2)=C1c1ccc(F)cc1 | > 512 | – | – | > 512 | – | – | – | > 512 | – | – | inactive | > 512 | – | > 512 | > 512 | > 512 | –
C=C1OC(=O)C(CNC(=O)CCCCCCCCCC)=C1c1ccc(F)cc1 | > 512 | – | – | > 512 | – | Active | inactive | > 512 | Active | inactive | 44.7% | > 512 | inactive | > 512 | > 512 | > 512 | –
CC[C@H]1OC(=O)[C@H](C)[C@@H](O[C@H]2C[C@@](C)(OC)[C@@H](O)[C@H](C)O2)[C@H](C)[C@@H](O[C@@H]2O[C@H](C)C[C@H](N(C)C)[C@H]2O)[C@](C)(O)C[C@@H](C)CN(C)[C@H](C)[C@@H](O)[C@]1(C)O [AZITHROMYCIN] | 16 (≈ 21.4 µM) | – | – | 0.25 (≈ 0.334 µM) | – | – | – | 256 (≈ 342 µM) | – | – | – | 128 (≈ 171 µM) | – | 256 (≈ 342 µM) | 0.25 (≈ 0.334 µM) | 0.25 (≈ 0.334 µM) | inhibition (Pseudomonas aeruginosa [17]): inactive
C=C1OC(=O)C(CNC(=O)c2cccc(OC)c2)=C1c1ccc(F)cc1 | > 512 | Active | Active | > 512 | Dose-Dependent Effect | 8.6% | inactive | > 512 | Active | inactive | Active | > 512 | Active | 32 (≈ 90.6 µM) | > 512 | > 512 | Activity (Pseudomonas aeruginosa [6]): Active
O=C1C=C(Br)/C(=C/Br)O1 | 256 (≈ 1010 µM) | – | – | 64 (≈ 252 µM) | – | – | Active | 128 (≈ 504 µM) | 44.9% | Active | – | 256 (≈ 1010 µM) | Active | 128 (≈ 504 µM) | 256 (≈ 1010 µM) | 32 (≈ 126 µM) | –
C=C1C(c2ccc(F)cc2)=C(CNC(=O)c2ccc(C)cc2)C(=O)N1c1ccccc1C | > 512 | Active | Active | > 512 | Dose-Dependent Effect | 8.6% | inactive | 512 (≈ 1200 µM) | 45.9% | inactive | 38.3% | > 512 | inactive | > 512 | 512 (≈ 1200 µM) | > 512 | hemolysis at 1 h, 512 ug/ml [4]: < 2.5%; Activity (Pseudomonas aeruginosa [6]): Active; fold change (FC) (Pseudomonas aeruginosa [16]): >=1.5
C=C1C(c2ccc(F)cc2)=C(CNC(=O)c2ccc(C)cc2)C(=O)N1c1ccc(C)cc1 | > 512 | Active | Active | 512 (≈ 1200 µM) | Dose-Dependent Effect | 8.6% | inactive | 512 (≈ 1200 µM) | 49.7% | inactive | Active | > 512 | inactive | > 512 | 512 (≈ 1200 µM) | > 512 | hemolysis at 1 h, 512 ug/ml [4]: > 2.5%; fold change (FC) (Pseudomonas aeruginosa [16]): >=1.5
C=C1OC(=O)C(CNC(=O)c2ccc(OC)cc2)=C1c1ccc(F)cc1 | > 512 | Active | Active | 128 (≈ 362 µM) | Dose-Dependent Effect | 8.6% | inactive | > 512 | Active | inactive | 44% | > 512 | Active | 64 (≈ 181 µM) | 32 (≈ 90.6 µM) | 32 (≈ 90.6 µM) | Activity (Pseudomonas aeruginosa [6]): Active; inhibition (INH) (Pseudomonas aeruginosa [18]): 90.53%
C=C1OC(=O)C(CNC(=O)c2ccc(C)cc2)=C1c1cccc(Cl)c1 | > 512 | – | – | > 512 | – | Active | inactive | > 512 | Active | inactive | Active | > 512 | inactive | > 512 | > 512 | > 512 | –
C=C1OC(=O)C(CNC(=O)CCc2ccccc2)=C1c1ccc(F)cc1 | > 512 | – | – | 64 (≈ 182 µM) | – | – | – | 512 (≈ 1460 µM) | – | – | inactive | > 512 | – | 16 (≈ 45.5 µM) | > 512 | > 512 | –
C=C1OC(=O)C(CNC(=O)c2ccc(C)cc2)=C1c1ccc(OC)cc1 | > 512 | – | – | > 512 | – | Active | inactive | > 512 | Active | inactive | Active | > 512 | inactive | > 512 | > 512 | > 512 | –
C=C1OC(=O)C(CNC(=O)CCCCCCCCCCC)=C1c1ccc(F)cc1 | > 512 | – | – | > 512 | – | Active | inactive | > 512 | Active | inactive | 36.5% | > 512 | Active | > 512 | > 512 | > 512 | –
